In experiment [1] the test system is male rats. The experiment in a line: Calculus prevention effect by chelating agents (repeated intravenous administration, 2 weeks). The note with it: for Calculi / Hyperplasia of vesical transitional epithelium / Urinary occult blood: mixed with R-CHI3-DTPA-Gd 0.33 mmol/kg i.v.; for Calculi / Hyperplasia of vesical transitional epithelium / Effect of inhibiting production of calculi: male rats; for Urinary occult blood: occurrences/total daily inspections for 14 days; for Effect of inhibiting production of calculi: specimens of R-CHI3-DTPA-Gd mixed with chelating agent, summary in words. It counts as in vivo. As for the experimental part:
To R-CHI3-DTPA-Gd, was added diethylenetriaminepentaacetic acid (DTPA), its calcium complex, or calcium complex of ethylenediaminetetraacetic acid (EDTA). Using them as specimens, toxicity studies by repeated intravenous administration were conducted on male rats for 2 weeks. A group, which is called DTPA-10 group, was administered with a specimen of R-CHI3-DTPA-Gd mixed with DTPA in an amount equivalent to 10 mmol per 500 mmol of the DTPA-Gd portion of the R-CHI3-DTPA-Gd; a group, which is called DTPA-Ca-10 group, was administered with a specimen mixed with calcium complex of DTPA in an amount equivalent to 10 mmol; a group, which is called EDTA-Ca-1 group, was administered with a specimen mixed with calcium complex of EDTA in an amount equivalent 1 mmol; and a group, which is called EDTA-Ca-10 group, was administered with a specimen mixed with calcium complex of EDTA in an amount equivalent to 10 mmol. DTPA and others were mixed with R-CHI3-DTPA-Gd immediately before administration. As control groups, were set up a group that was administered with a physiological saline and a group that was free from a chelating agent (i.e., administered with R-CHI3-DTPA-Gd only). Except the physiological saline-administered group, the dose as R-CHI3-DTPA-Gd was 0.33 mmol/kg.
(The chelating agent-free group is estimated to include individuals that discharged calculi from their urinary bladders, judging from the hyperplasia of vesical transitional epithelium and the frequency of urinary occult blood.)

The test system of experiment [2] is male rats. The experiment in a line: Calculus prevention effect by DTPA (repeated intravenous administration, 2 weeks, two lots). It counts as in vivo. The note with it: for Urinary occult blood: occurrences/inspections. On the procedure:
Toxicity studies by repeated intravenous administration were conducted on male rats for 2 weeks using, as a specimen, R-CHI3-DTPA-Gd to which DTPA was added. In this test, two lots (hereinafter called lot #1 and lot #2) of R-CHI3-DTPA-Gd were provided, and the following administered groups were set up. […] As control groups, were set up a group that was administered with a physiological saline and a group that was free from a chelating agent (i.e., administered with […] of lot (1) only). Except the physiological saline-administered group, the dose as R-CHI3-DTPA-Gd was 0.33 mmol/kg.

Where [3] appears, read: chelating agent 10 mmol per 500 mmol DTPA-Gd portion.
Setting [4] is: chelating agent 1 mmol per 500 mmol DTPA-Gd portion.
The mark [5] stands for this setting: DTPA 1 mmol per 500 mmol DTPA-Gd portion, R-CHI3-DTPA-Gd lot #1, 0.33 mmol/kg i.v.
Where [6] appears, read: DTPA 1 mmol per 500 mmol DTPA-Gd portion, R-CHI3-DTPA-Gd lot #2, 0.33 mmol/kg i.v.
[7] abbreviates: DTPA 1.3 mmol per 500 mmol DTPA-Gd portion, R-CHI3-DTPA-Gd lot #2, 0.33 mmol/kg i.v.
Where [8] appears, read: DTPA 3 mmol per 500 mmol DTPA-Gd portion, R-CHI3-DTPA-Gd lot #1, 0.33 mmol/kg i.v.
Where [9] appears, read: DTPA 10 mmol per 500 mmol DTPA-Gd portion, R-CHI3-DTPA-Gd lot #2, 0.33 mmol/kg i.v.

Regarding `O=C([O-])CN(CCN(CCN(CC(=O)[O-])CC(=O)O)CC(=O)O)CC(=O)O.[Ca+2]` [DTPA-Ca], in the experiment on male rats [1] (setting [3]), the Calculi is 0/10, the “Hyperplasia of vesical transitional epithelium” value (“Hyperplasia” below) is reported as 0/10 and the Urinary occult blood is listed as 3/140. Besides, in the experiment on male rats [1], the “Effect of inhibiting production of calculi” value was “significant effect”.

Regarding `O=C([O-])CN(CCN(CC(=O)[O-])CC(=O)O)CC(=O)O.[Ca+2]` [EDTA-Ca], in the experiment with male rats [1] (setting [4]), the Calculi is recorded as 4/10, the “Hyperplasia” value is given as 2/10 and the Urinary occult blood is reported as 17/140. Further, in the experiment on male rats [1] (setting [3]), the Calculi is 1/10, the “Hyperplasia” value was 1/10 and the Urinary occult blood is reported as 6/140. Also, in the experiment on male rats [1], the “Effect of inhibiting production of calculi” value was “week effect”.

As to `O=C(O)CN(CCN(CC(=O)O)CC(=O)O)CCN(CC(=O)O)CC(=O)O` [DTPA, diethylenetriaminepentaacetic acid], the Calculi in the experiment on male rats [1] (setting [3]) is on record as 0/10; in the experiment on male rats [2] (setting [5]), 5/10; in the experiment on male rats [2] (setting [6]), 5/10; in the experiment on male rats [2] (setting [7]), 5/10; in the experiment with male rats [2] (setting [8]) it was 5/10; with male rats [2] (setting [9]) it was 3/10. Moreover, the “Hyperplasia” value in the experiment with male rats [1] (setting [3]) was 0/10; in the experiment with male rats [2] (setting [5]), 7/10; in the experiment on male rats [2] (setting [6]), 6/10; in the experiment with male rats [2] (setting [7]), 7/10; in the experiment with male rats [2] (setting [8]), 5/10; in the experiment on male rats [2] (setting [9]), 4/10. Also, the Urinary occult blood in the experiment with male rats [1] (setting [3]) is listed as 8/140; in the experiment on male rats [2] (setting [5]), 24/140; with male rats [2] (setting [6]), 27/140; in the experiment with male rats [2] (setting [7]), 26/140; with male rats [2] (setting [8]), 17/140; in the experiment with male rats [2] (setting [9]), 19/140. The “Effect of inhibiting production of calculi” value in the experiment on male rats [1] is given as “significant effect”.
